Test results taken from the NIST ThermoML archive (doi:10.1021/je7004006).

Assay: molar heat capacity at constant pressure
Conditions: 101.33 kPa, Crystal, Small (less than 1 g) adiabatic calorimetry

O=C([O-])c1cccnc1.O=C([O-])c1cccnc1.O=C([O-])c1cccnc1.[Cr+3] [chromium nicotinate]
Conditions | molar heat capacity at constant pressure [J/K/mol]
78.3 K | 123.81
79.58 K | 125.36
80.78 K | 127.92
83.27 K | 130.33
85.75 K | 132.64
87.67 K | 134.61
88.87 K | 136.08
90.15 K | 137.63
92 K | 139.67
93.27 K | 141.41
94.62 K | 142.98
95.9 K | 144.85
97.32 K | 146.89
98.81 K | 148.83
100.39 K | 151.39
102.33 K | 154.15
104.42 K | 157.04
106.52 K | 159.91
108.56 K | 162.72
110.57 K | 165.32
112.55 K | 168.16
114.51 K | 171.37
116.44 K | 174.23
118.51 K | 177.09
120.7 K | 180.42
122.86 K | 183.21
125 K | 186.13
127.12 K | 189.86
129.2 K | 192.42
131.27 K | 194.83
133.29 K | 197.19
135.34 K | 199.39
137.35 K | 202.21
139.34 K | 205.13
141.27 K | 208.55
143.29 K | 211.67
145.18 K | 214.31
147.24 K | 217.25
149.26 K | 220.52
151.28 K | 222.96
153.41 K | 226.31
155.54 K | 229.13
157.62 K | 231.64
159.7 K | 235.03
161.75 K | 238.11
163.85 K | 240.81
165.85 K | 243.11
167.87 K | 246.05
169.89 K | 248.77
171.91 K | 251.87
173.84 K | 254.46
175.86 K | 257.44
177.79 K | 260.13
179.73 K | 262.72
181.66 K | 265.17
183.6 K | 268.44
185.62 K | 271.07
187.71 K | 274.19
189.73 K | 277.14
191.82 K | 280.35
193.92 K | 283.85
196.02 K | 286.68
198.11 K | 289.66
200.29 K | 293.01
202.31 K | 295.75
204.32 K | 298.67
206.42 K | 301.71
208.43 K | 304.98
210.45 K | 308.04
212.47 K | 310.72
214.4 K | 313.38
216.42 K | 316.97
218.35 K | 320.03
220.29 K | 324.12
222.3 K | 325.43
224.24 K | 328.85
226.09 K | 332.72
228.83 K | 337.34
231.74 K | 341.35
234.72 K | 345.07
237.78 K | 349.99
241.01 K | 354.61
244.07 K | 360.78
247.13 K | 364.57
250.28 K | 369.63
253.26 K | 373.95
256.33 K | 378.71
259.39 K | 383.32
262.45 K | 388.08
265.52 K | 392.41
268.5 K | 397.46
271.49 K | 402.07
274.55 K | 406.39
277.77 K | 410.55
280.84 K | 415.32
283.98 K | 420.08
287.05 K | 425.14
290.11 K | 429.31
293.25 K | 432.73
296.24 K | 436.89
299.14 K | 441.06
302.2 K | 445.38
305.27 K | 449.99
308.25 K | 453.86
311.39 K | 458.92
314.62 K | 464.13
317.68 K | 468.44
320.91 K | 472.31
324.13 K | 476.78
327.12 K | 480.35
329.78 K | 484.81
332.44 K | 488.54
335.1 K | 492.26
337.84 K | 495.98
340.5 K | 499.71
343.24 K | 503.86
346.06 K | 507.44
348.97 K | 511.45
351.79 K | 514.88
354.53 K | 518.75
357.43 K | 523.81
360.34 K | 528.42
363 K | 532.73
365.9 K | 536.45
368.64 K | 539.88
371.37 K | 543.64
374.08 K | 547.89
376.98 K | 552.51
379.69 K | 556.21
382.38 K | 559.42
385.12 K | 562.83
387.85 K | 566.51
390.52 K | 569.91
